Measurements taken from ChEMBL document CHEMBL4334526, “Synthesis of Peptoid-Based Class I-Selective Histone Deacetylase Inhibitors with Chemosensitizing Properties” (J Med Chem, 2019).
pIC50: −log10 of the molar value. Activity calls are given as the source filed them. The calls are words filed in the database; no cut-off is given here.

How the values were obtained:
Histone deacetylase [1] = assay: Inhibition of HDAC in human A2780 cells using Boc-Lys(epsilon-Ac)-AMC as substrate preincubated for 18 hrs followed by substrate addition and measured after 3 hrs by fluorescence assay; format: cell-based
Histone deacetylase 1 = Histone deacetylase 1 (Homo sapiens, UniProt Q13547); assay: Inhibition of recombinant human full length C-terminal His/FLAG-tagged HDAC1 expressed in baculovirus infected Sf9 insect cells using ZMAL as substrate incubated for 90 mins by fluorescence assay
Histone deacetylase 1, sequence (Q13547 whole entry): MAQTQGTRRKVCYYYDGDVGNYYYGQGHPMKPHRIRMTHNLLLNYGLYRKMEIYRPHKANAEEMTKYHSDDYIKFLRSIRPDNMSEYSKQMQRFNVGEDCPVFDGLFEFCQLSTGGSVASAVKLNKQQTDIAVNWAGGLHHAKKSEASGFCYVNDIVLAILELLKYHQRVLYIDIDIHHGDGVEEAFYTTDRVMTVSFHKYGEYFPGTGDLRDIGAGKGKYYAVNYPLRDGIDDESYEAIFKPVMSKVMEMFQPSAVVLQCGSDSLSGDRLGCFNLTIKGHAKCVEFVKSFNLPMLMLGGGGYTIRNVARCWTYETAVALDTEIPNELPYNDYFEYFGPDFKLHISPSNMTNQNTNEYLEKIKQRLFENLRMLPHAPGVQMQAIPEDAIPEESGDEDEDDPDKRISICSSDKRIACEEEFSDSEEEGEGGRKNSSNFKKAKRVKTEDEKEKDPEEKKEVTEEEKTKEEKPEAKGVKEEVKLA

CAL-27 [2] = assay: Cytotoxicity against human CAL27 cells assessed as reduction in cell survival measured after 72 hrs by MTT assay; format: functional, cell-based; details: CAL-27, 72 h
Histone deacetylase 2 [3] = target: T1, Histone deacetylase 2 (Homo sapiens, UniProt Q92769); assay: Inhibition of recombinant human full length C-terminal FLAG-tagged HDAC2 expressed in baculovirus infected Sf9 insect cells using Boc-Lys(epsilon-acetyl)-AMC as substrate incubated for 90 mins by fluorescence assay; format: cell-based
T1 sequence (Q92769 whole entry): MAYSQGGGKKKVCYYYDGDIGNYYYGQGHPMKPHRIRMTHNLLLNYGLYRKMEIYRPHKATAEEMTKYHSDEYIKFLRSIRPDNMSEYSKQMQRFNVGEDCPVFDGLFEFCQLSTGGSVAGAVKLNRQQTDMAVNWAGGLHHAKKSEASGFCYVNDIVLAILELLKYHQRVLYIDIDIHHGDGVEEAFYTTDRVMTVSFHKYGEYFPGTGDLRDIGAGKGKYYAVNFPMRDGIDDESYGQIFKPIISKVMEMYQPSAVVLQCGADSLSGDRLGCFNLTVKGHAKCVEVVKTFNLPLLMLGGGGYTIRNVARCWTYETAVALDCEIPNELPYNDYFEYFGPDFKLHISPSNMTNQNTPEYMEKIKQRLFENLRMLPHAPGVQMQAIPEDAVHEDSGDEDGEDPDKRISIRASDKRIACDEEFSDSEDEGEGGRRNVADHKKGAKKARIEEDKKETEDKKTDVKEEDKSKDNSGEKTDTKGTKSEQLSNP

[4] = target: Histone deacetylase 3/Nuclear receptor corepressor 2 (HDAC3/NCoR2) (Homo sapiens, UniProt O15379); assay: biochemical; format: cell-based, Sf9
Histone deacetylase 3/Nuclear receptor corepressor 2 (HDAC3/NCoR2), sequence (O15379 whole entry): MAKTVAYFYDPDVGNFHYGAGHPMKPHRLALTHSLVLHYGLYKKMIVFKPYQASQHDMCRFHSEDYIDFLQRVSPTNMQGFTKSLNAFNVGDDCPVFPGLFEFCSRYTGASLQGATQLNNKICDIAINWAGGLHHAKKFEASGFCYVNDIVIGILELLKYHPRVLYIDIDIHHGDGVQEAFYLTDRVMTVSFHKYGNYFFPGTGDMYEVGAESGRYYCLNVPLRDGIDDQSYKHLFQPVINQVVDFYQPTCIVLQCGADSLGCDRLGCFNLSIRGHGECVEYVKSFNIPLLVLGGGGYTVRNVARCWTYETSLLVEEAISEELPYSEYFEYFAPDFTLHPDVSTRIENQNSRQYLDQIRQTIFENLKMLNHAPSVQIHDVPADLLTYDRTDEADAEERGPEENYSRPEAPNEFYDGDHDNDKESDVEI
Histone deacetylase 3/Nuclear receptor corepressor 2 (HDAC3/NCoR2), sequence (Q9Y618 whole entry, further chain): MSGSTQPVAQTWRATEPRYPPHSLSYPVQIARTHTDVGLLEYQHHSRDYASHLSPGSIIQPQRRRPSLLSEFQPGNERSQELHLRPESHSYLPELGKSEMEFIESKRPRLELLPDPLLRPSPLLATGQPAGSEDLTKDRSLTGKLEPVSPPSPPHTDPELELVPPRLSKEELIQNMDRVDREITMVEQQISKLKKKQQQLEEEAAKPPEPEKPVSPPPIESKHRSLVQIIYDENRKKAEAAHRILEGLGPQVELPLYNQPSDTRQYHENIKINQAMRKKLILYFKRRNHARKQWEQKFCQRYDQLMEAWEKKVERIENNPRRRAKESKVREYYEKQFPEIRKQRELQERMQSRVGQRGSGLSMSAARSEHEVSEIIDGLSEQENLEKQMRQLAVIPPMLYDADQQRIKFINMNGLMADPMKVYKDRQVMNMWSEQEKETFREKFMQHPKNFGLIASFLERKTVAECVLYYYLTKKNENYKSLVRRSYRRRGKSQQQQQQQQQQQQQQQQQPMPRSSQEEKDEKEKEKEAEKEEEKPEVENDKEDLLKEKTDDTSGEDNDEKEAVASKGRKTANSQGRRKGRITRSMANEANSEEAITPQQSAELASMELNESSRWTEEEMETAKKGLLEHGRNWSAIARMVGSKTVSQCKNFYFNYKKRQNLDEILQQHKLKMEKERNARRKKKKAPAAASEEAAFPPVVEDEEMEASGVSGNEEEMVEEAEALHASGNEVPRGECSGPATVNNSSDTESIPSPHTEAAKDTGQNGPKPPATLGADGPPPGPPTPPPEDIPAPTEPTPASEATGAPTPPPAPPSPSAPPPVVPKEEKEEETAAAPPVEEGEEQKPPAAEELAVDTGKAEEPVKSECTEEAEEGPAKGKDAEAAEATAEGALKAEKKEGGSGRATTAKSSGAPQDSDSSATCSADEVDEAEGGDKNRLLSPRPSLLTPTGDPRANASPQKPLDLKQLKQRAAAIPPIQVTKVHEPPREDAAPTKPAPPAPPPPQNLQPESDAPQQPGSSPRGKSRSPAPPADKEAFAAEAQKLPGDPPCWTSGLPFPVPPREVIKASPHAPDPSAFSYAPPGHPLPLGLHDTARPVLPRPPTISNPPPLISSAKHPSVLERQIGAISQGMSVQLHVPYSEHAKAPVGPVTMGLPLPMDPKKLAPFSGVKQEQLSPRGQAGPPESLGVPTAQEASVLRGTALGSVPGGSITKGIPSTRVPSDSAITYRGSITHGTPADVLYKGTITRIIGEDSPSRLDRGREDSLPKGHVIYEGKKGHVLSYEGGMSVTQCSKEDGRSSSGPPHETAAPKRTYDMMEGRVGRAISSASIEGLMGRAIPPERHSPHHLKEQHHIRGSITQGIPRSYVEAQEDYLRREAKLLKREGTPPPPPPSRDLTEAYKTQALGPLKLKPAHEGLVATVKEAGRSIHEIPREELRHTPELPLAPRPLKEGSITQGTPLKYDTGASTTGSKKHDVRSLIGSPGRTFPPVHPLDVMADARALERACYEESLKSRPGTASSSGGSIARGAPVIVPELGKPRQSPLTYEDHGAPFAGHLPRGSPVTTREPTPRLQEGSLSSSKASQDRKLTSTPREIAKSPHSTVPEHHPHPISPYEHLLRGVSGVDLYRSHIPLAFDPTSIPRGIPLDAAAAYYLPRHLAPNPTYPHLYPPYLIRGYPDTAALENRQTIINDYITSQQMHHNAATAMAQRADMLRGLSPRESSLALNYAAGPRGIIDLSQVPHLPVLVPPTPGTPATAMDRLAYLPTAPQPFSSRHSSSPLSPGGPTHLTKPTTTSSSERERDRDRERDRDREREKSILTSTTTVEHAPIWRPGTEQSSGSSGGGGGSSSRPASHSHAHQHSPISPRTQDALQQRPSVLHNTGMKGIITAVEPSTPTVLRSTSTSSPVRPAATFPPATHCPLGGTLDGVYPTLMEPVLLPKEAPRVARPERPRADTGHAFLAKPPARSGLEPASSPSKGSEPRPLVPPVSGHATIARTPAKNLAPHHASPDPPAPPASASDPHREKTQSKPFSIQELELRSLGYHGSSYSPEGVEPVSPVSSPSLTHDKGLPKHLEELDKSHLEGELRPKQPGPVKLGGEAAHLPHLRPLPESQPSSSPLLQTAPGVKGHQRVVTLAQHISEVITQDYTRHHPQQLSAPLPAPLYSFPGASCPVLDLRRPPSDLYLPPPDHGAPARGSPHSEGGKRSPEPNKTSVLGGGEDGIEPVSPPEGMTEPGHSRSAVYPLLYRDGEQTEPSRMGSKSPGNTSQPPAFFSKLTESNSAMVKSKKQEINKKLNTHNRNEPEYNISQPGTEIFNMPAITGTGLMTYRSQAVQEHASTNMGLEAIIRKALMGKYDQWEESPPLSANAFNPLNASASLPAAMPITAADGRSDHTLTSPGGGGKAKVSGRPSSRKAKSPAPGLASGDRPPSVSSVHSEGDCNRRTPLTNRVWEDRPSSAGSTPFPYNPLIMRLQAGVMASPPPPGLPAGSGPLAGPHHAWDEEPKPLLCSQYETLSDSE
Description: Inhibition of human recombinant full length C-terminal His-tagged HDAC3 (1 to 428 residues)/N-terminal GST-tagged NCOR2 (395 to 489 residues) expressed in baculovirus infected Sf9 insect cells using Boc-Lys(epsilon-acetyl)-AMC as substrate incubated for 90 mins by fluorescence assay

A2780 [5] = assay: Cytotoxicity against human A2780 cells assessed as reduction in cell survival measured after 72 hrs by MTT assay; format: functional, cell-based; details: A2780, 72 h
Histone deacetylase [6] = assay: Inhibition of HDAC in human CAL27 cells using Boc-Lys(epsilon-Ac)-AMC as substrate preincubated for 18 hrs followed by substrate addition and measured after 3 hrs by fluorescence assay; format: cell-based
[7] = target: T2, Protein deacetylase HDAC6 (Homo sapiens, UniProt Q9UBN7); assay: Inhibition of human full length N-terminal GST-tagged HDAC6 expressed in baculovirus infected Sf9 insect cells ZMAL as substrate incubated for 90 mins by fluorescence assay; format: cell-based
T2 sequence (Q9UBN7 whole entry): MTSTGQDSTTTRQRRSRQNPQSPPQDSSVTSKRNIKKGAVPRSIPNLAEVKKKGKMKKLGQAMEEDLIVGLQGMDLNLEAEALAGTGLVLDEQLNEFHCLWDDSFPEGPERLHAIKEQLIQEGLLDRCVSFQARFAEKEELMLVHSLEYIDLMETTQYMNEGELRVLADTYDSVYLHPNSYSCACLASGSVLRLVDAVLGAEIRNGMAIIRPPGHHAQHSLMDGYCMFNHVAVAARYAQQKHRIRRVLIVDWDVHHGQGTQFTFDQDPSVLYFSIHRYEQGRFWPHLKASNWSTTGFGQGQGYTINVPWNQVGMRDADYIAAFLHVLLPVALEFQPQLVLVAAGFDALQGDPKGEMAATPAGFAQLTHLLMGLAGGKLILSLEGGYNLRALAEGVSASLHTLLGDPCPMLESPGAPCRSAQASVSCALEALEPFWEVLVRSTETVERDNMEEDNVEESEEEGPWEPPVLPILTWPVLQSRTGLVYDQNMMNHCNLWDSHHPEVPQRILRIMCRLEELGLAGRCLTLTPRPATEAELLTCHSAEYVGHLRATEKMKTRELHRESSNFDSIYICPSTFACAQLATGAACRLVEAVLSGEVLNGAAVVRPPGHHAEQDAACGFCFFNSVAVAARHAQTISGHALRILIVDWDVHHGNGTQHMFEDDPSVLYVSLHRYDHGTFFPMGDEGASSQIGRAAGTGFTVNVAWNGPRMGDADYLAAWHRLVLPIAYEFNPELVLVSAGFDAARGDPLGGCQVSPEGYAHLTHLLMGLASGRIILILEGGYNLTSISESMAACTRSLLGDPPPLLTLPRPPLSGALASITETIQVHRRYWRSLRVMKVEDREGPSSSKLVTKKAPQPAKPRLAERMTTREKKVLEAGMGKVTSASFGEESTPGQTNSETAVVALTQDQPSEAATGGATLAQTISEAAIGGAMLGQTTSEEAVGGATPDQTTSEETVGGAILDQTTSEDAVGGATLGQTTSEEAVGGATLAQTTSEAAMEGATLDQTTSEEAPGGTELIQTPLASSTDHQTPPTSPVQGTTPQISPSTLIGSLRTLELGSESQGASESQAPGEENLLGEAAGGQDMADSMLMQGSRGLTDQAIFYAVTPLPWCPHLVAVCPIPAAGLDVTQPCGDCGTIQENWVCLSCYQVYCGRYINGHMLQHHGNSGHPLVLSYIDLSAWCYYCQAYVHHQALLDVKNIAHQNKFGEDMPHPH

A2780 [8] = assay: Cytotoxicity against human A2780 cells assessed as reduction in cell survival up to 100 uM measured after 72 hrs by MTT assay; format: functional, cell-based
[9] = target: Histone deacetylase 3/Nuclear receptor corepressor 2 (HDAC3/NCoR2) (Homo sapiens) (UniProt O15379+Q9Y618); assay: Inhibition of human recombinant full length C-terminal His-tagged HDAC3 (1 to 428 residues)/N-terminal GST-tagged NCOR2 (395 to 489 residues) expressed in baculovirus infected Sf9 insect cells at 10 uM using Boc-Lys(epsilon-acetyl)-AMC as substrate incubated for 90 mins by fluorescence assay relative to control
Histone deacetylase 2 [10] = target: T1, Histone deacetylase 2; assay: Inhibition of recombinant human full length C-terminal FLAG-tagged HDAC2 expressed in baculovirus infected Sf9 insect cells at 3.33 uM using Boc-Lys(epsilon-acetyl)-AMC as substrate incubated for 90 mins by fluorescence assay relative to control
Histone deacetylase 2 [11] = target: T1, Histone deacetylase 2; assay: Inhibition of recombinant human full length C-terminal FLAG-tagged HDAC2 expressed in baculovirus infected Sf9 insect cells at 10 uM using Boc-Lys(epsilon-acetyl)-AMC as substrate incubated for 90 mins by fluorescence assay relative to control
CAL-27 [12] = assay: Potency index, ratio of vorinostat IC50 to test compound IC50 for cytotoxicity against human CAL27 cells; format: functional

Cc1cc(C)cc(C(=O)N(CCCCCC(=O)Nc2ccccc2N)CC(=O)NCc2ccccc2)c1 was tested, and the IC50 (Histone deacetylase [1]) was 8.71 µM, the pIC50 (Histone deacetylase 1) was 5.94 and the pIC50 (CAL-27 [2]) was 4.86. For the same compound, the pIC50 (Histone deacetylase 2 [3]) was 5.80, the pIC50 [4] was 6.60 and the pIC50 (A2780 [5]) was 4.68. The IC50 (Histone deacetylase [6]) was 3.93 µM and the pIC50 [7] was under 5.00.

In the case of Cc1ccc(CNC(=O)CN(CCCCCC(=O)Nc2ccccc2N)C(=O)c2cc(C)cc(C)c2)cc1, the IC50 (Histone deacetylase [1]) was 4.48 µM, the pIC50 (Histone deacetylase 1) was 5.96 and the pIC50 (CAL-27 [2]) was 4.74. For the same compound, the pIC50 (Histone deacetylase 2 [3]) was 5.30, the pIC50 [4] was 6.32 and the pIC50 (A2780 [5]) was 5.01. The IC50 (Histone deacetylase [6]) was 4.57 µM and the pIC50 [7] was under 5.00.

Compound Nc1ccccc1NC(=O)c1ccc(CN(CC(=O)NCc2ccccc2)C(=O)c2cccnc2)cc1 has an IC50 (Histone deacetylase [1]) of 1.06 µM, a pIC50 (Histone deacetylase 1) of 6.99 and a pIC50 (CAL-27 [2]) of 4.95. For the same compound, the pIC50 (Histone deacetylase 2 [3]) was 6.10, the pIC50 [4] was 6.06 and the pIC50 (A2780 [5]) was 5.05. The IC50 (Histone deacetylase [6]) was 1.01 µM and the pIC50 [7] was under 5.00.

CN(C)c1ccc(C(=O)N(CC(=O)NCc2ccccc2)Cc2ccc(C(=O)Nc3cc(-c4ccccc4)ccc3N)cc2)cc1 gave an IC50 (Histone deacetylase [1]) of 2.62 µM, a pIC50 (Histone deacetylase 1) of 7.41 and a pIC50 (CAL-27 [2]) of 4.95. For the same compound, the pIC50 [4] was under 5.00, the Activity (A2780 [8]) was “inactive” and the inhibition [9] was under 15%. The inhibition (Histone deacetylase 2 [10]) was 36%, the IC50 (Histone deacetylase [6]) was 0.85 µM and the pIC50 [7] was under 5.00.

Compound Cc1cc(C)cc(C(=O)N(CC(=O)NCc2ccccc2)Cc2ccc(C(=O)Nc3cc(F)ccc3N)cc2)c1 has an IC50 (Histone deacetylase [1]) of 1.43 µM, a pIC50 (Histone deacetylase 1) of 6.56 and an inhibition (Histone deacetylase 2 [11]) of 25%. For the same compound, the pIC50 (CAL-27 [2]) was 5.24, the inhibition [9] was 23% and the pIC50 (A2780 [5]) was 5.27. It also gave an IC50 (Histone deacetylase [6]) of 0.47 µM and a pIC50 [7] of under 5.00.

CN(C)c1ccc(C(=O)N(CCCCCC(=O)Nc2cc(F)ccc2N)CC(=O)NCc2ccccc2)cc1 showed an IC50 (Histone deacetylase [1]) of 13.4 µM, a pIC50 (Histone deacetylase 1) of 5.70 and a pIC50 (CAL-27 [2]) of 4.69. The pIC50 (Histone deacetylase 2 [3]) was 5.51, the pIC50 [4] was 6.43 and the pIC50 (A2780 [5]) was 4.59. It also gave an IC50 (Histone deacetylase [6]) of 6.82 µM and a pIC50 [7] of under 5.00.

Cc1cc(C)cc(CNC(=O)CN(CCCCCC(=O)Nc2ccccc2N)C(=O)c2cc(C)cc(C)c2)c1 showed an IC50 (Histone deacetylase [1]) of 3.17 µM, a pIC50 (Histone deacetylase 1) of 6.32 and a pIC50 (CAL-27 [2]) of 4.71. It also gave a pIC50 (Histone deacetylase 2 [3]) of 5.39, a pIC50 [4] of 6.23 and a pIC50 (A2780 [5]) of 5.29. It also gave an IC50 (Histone deacetylase [6]) of 3.15 µM and a pIC50 [7] of under 5.00.

COc1ccc(CNC(=O)CN(CCCCCC(=O)Nc2ccccc2N)C(=O)c2cc(C)cc(C)c2)cc1 was tested, and the IC50 (Histone deacetylase [1]) was 3.53 µM, the pIC50 (Histone deacetylase 1) was 5.68 and the inhibition (Histone deacetylase 2 [11]) was 30%. It also gave a pIC50 (CAL-27 [2]) of 4.76, an inhibition [9] of 49% and a pIC50 (A2780 [5]) of 4.61. It also gave an IC50 (Histone deacetylase [6]) of 4.81 µM and a pIC50 [7] of under 5.00.

Work on Nc1ccccc1NC(=O)CCCCCN(CC(=O)NCc1ccccc1)C(=O)c1cccc2ccccc12 yielded an IC50 (Histone deacetylase [1]) of 10.2 µM, a pIC50 (Histone deacetylase 1) of 5.78 and a pIC50 (CAL-27 [2]) of 4.96. The pIC50 (Histone deacetylase 2 [3]) was 5.72, the pIC50 [4] was 6.79 and the pIC50 (A2780 [5]) was 4.64. It also gave an IC50 (Histone deacetylase [6]) of 4.13 µM and a pIC50 [7] of under 5.00.

CN(C)c1ccc(C(=O)N(CCCCCC(=O)Nc2ccccc2N)CC(=O)NCc2ccccc2)cc1 gave an IC50 (Histone deacetylase [1]) of 9.25 µM, a pIC50 (Histone deacetylase 1) of 5.80 and a pIC50 (CAL-27 [2]) of 4.80. It also gave a pIC50 (Histone deacetylase 2 [3]) of 5.91, a pIC50 [4] of 6.51 and a pIC50 (A2780 [5]) of 4.73. The IC50 (Histone deacetylase [6]) was 4.33 µM and the pIC50 [7] was under 5.00.

Compound Cc1cc(C)cc(C(=O)N(CCCCCC(=O)Nc2ccccc2N)CC(=O)NC2CCCCC2)c1 has an IC50 (Histone deacetylase [1]) of 22.8 µM, a pIC50 (Histone deacetylase 1) of 5.26 and a pIC50 (CAL-27 [2]) of 4.76. The pIC50 (Histone deacetylase 2 [3]) was 5.18, the pIC50 [4] was 6.32 and the pIC50 (A2780 [5]) was 4.38. The IC50 (Histone deacetylase [6]) was 12.1 µM and the pIC50 [7] was under 5.00.

In the case of Nc1ccccc1NC(=O)CCCCCN(CC(=O)NC1CCCCC1)C(=O)c1cccc2ccccc12, the IC50 (Histone deacetylase [1]) was 33.1 µM, the pIC50 (Histone deacetylase 1) was 5.18 and the pIC50 (CAL-27 [2]) was 4.60. For the same compound, the pIC50 (Histone deacetylase 2 [3]) was 5.27, the pIC50 [4] was 6.19 and the pIC50 (A2780 [5]) was 4.74. It also gave an IC50 (Histone deacetylase [6]) of 13 µM and a pIC50 [7] of under 5.00.

With Nc1ccccc1NC(=O)CCCCCN(CC(=O)NC1CCCCC1)C(=O)c1ccccc1 the IC50 (Histone deacetylase [1]) was 43.6 µM, the pIC50 (Histone deacetylase 1) was 5.26 and the pIC50 (CAL-27 [2]) was 4.51. The pIC50 (Histone deacetylase 2 [3]) was 5.23, the pIC50 [4] was 6.07 and the pIC50 (A2780 [5]) was 3.74. It also gave an IC50 (Histone deacetylase [6]) of 21.9 µM and a pIC50 [7] of under 5.00.

With Cc1cc(C)cc(C(=O)N(CC(=O)NCc2ccccc2)Cc2ccc(C(=O)Nc3ccccc3N)cc2)c1 the IC50 (Histone deacetylase [1]) was 0.81 µM, the pIC50 (Histone deacetylase 1) was 7.21 and the pIC50 (CAL-27 [2]) was 5.80. For the same compound, the pIC50 (Histone deacetylase 2 [3]) was 6.31, the “Ratio IC50” value (CAL-27 [12]) was 1.7 and the inhibition [9] was 32%. For the same compound, the pIC50 (A2780 [5]) was 5.55, the IC50 (Histone deacetylase [6]) was 0.18 µM and the pIC50 [7] was under 5.00.
